Values quoted from earlier work, collected in patent publication US6297274A, “Nonpeptide endothelin antagonists with increased water solubility” (priority 1998, dated 2001).
Where a SMILES comes first, the peptide text is derived from it. [ ]: non-standard residue; d: D form.

What was measured:
[1] = test system: vasoconstriction of the basilar artery; conditions: after 7 days, canine two-hemorrhage model; cited from earlier work
[2] = test system: early cerebral vasospasm following SAH in the rat; conditions: cited from earlier work
[3] = test system: ET-1 induced bronchoconstriction and tracheal smooth muscle contraction; conditions: allergic sheep; cited from earlier work
[4] = test system: rat hypoxia model of hypertension; conditions: cited from earlier work
[5] = test system: early cerebral vasospasm following subarachnoid hemorrhage (SAH); conditions: in vivo; cited from earlier work
small intestinal mucosa = conditions: rats, local intra-arterial; cited from earlier work
liver = conditions: cited from earlier work
[6] = test system: ET-1-induced gastric ulceration; conditions: in vivo; cited from earlier work

FR 139317
vasoconstriction of the basilar artery [1]: significantly inhibited the vasoconstriction of the basilar artery

COc1cccc(Oc2c(NS(=O)(=O)c3ccc(C(C)(C)C)cc3)ncnc2OCCO)c1 [Ro 46-2005]
early cerebral vasospasm following SAH [2]: prevent early cerebral vasospasm following SAH in the rat

CC(C)C[C@@H]1NC(=O)[C@@H](C(C)C)NC(=O)[C@@H]2CCCN2C(=O)[C@@H](CC(=O)O)NC(=O)[C@@H](Cc2c[nH]c3ccccc23)NC1=O [BQ-123] (cyclo(L[dW][dD]P[dV]))
ET-1 induced bronchoconstriction and tracheal smooth muscle contraction [3]: shown to block ET-1 induced bronchoconstriction and tracheal smooth muscle contraction in allergic sheep
pulmonary vascular resistance and pulmonary arterial pressure [4]: provide protection in a rat hypoxia model of hypertension by lowering the increase in pulmonary vascular resistance and pulmonary arterial pressure
early cerebral vasospasm following SAH [5]: prevent early cerebral vasospasm following subarachnoid hemorrhage (SAH)

endothelin
small intestinal mucosal damage (small intestinal mucosa): shown to induce small intestinal mucosal damage in rats in a dose-dependent manner
hepatic vasculature vasoconstriction and hepatic glucose output (liver): eliciting both sustained vasoconstriction of the hepatic vasculature and a significant increase in hepatic glucose output

COc1ccccc1Oc1c(NS(=O)(=O)c2ccc(C(C)(C)C)cc2)nc(-c2ncccn2)nc1OCCO [Bosentan]
ET-1-induced changes in gastric mucosal hemodynamics and gastric ulceration [6]: antagonist toward the ET-1-induced changes in gastric mucosal hemodynamics as well as on ET-1-induced gastric ulceration
pulmonary vascular resistance and pulmonary arterial pressure [4]: provide protection in a rat hypoxia model of hypertension by lowering the increase in pulmonary vascular resistance and pulmonary arterial pressure
